Source: patent US9732044B2, “N-(pyrid-4-yl)amides and N-(pyrimidin-4-yl)amides and their pharmaceutical and cosmetic use” (GALDERMA RESEARCH & DEVELOPMENT, priority 2011, dated 2017)

What was measured:
androgen receptor (AR) = androgen receptor (AR) (Homo sapiens (Human), UniProt P10275); experiment: Androgen receptor transactivation test in PALM cell line (cross curves against methyl trienolone); assay type: cell-based; settings: threshold lists, PALM cells, read-out: Kdapp
Method: This AR inhibiting activity was measured in a transactivation test by the dissociation constants KdR (rest), KdA (active), and Kdapp (apparent).
A compound may be said to be an AR inhibitor if it has a dissociation constant, Kdapp, of less than or equal to 1 μM, and a KdR/KdA ratio of less than or equal to 10 in a transactivation test.
The transactivation test is carried out in the cell line PALM (PC3 androgen receptor Luciferase MMTV), which is a stable transfectant containing the plasmids PMMTV-neo-Luc (reporter gene) and pSG5puro-AR.
In this study, the affinity of each test compound for the 2 states of the receptor (KdR and KdA) is determined together with the apparent Kd (KdApp). This constant depends upon the 2 Kd's (KdR and KdA), but also depends on the initial equilibrium of the receptor between the active state and rest state (L0) and on its expression rate. It is determined by the following formula: 1/KdApp=(L0/(1+L0))×(1/KdR)+(1/(1+L0))×(1/KdA)
In order to determine these constants, “cross curves” of the test compound against a reference agonist, methyl trienolone, are carried out on a 96-well plate. The test compound is used in 10 concentrations and the reference agonist in 7 concentrations.

[1] = tested on: sebaceous gland of the ear of a Syrian hamster; experiment: In vivo animal model with reduction in the size of the sebaceous glands (Syrian hamster ear); settings: 1 g %/mL solution, topical on ear, daily for 24 days, compared to control (absolute ethanol)
Source text: The model of the sebaceous gland of the ear of a Syrian hamster described by Plewig and Luderschmidt in J. Inv. Derm., (1977), pp. 171-176 is a classical tool for the in vivo study of the function of the sebaceous gland. In fact, the inner faces of the ear lobes of the hamster contain a high number of sebaceous glands described as being similar to those of human sebaceous follicles in terms of certain characteristics, including their morphology and response to androgens and anti-androgens. In fact the growth and lipogenesis of the sebaceous glands on the inner face of the ear of Syrian hamsters depend on the androgens. The anti-androgenic activity of test compounds can be easily evaluated by measuring the size of the sebaceous glands. Moreover, this model has been selected to evaluate the efficacy of the antagonists of the receptor to the androgens on the sebaceous gland.
Test compounds were evaluated according to the following protocol: male hamsters aged weeks were treated daily for 24 days on the inner face of the right ear with 30 μL of a solution of the test compound to be evaluated in absolute ethanol. For each test compound, groups were treated with solutions at a range of concentrations (e.g., from 0.01 g %/mL to 3 g %/mL), as well as absolute ethanol used as a control. (A concentration of 3 g %/mL means a concentration of 0.03 g/mL.)
At the end of the study, samples were taken from the treated ears. The skin of the inner face of the ear was separated from the cartilage. Under a binocular magnifying glass, two zones of 4 mm^2 were numbered. The size of the sebaceous glands was measured on the numerical images by manually trimming the glands by means of image analysis software (TINA.20). For each image some twenty glands were measured. The average area of the sebaceous glands was calculated for each treatment group.
A Student t-test for independent groups comparing each dose with vehicle was carried out to compare the average size of the sebaceous glands as a function of the doses applied. When the evolution of the effect is represented graphically as a function of the administered dose of test compound, the curve obtained is sigmoid in shape. In the median part, this sigmoid may be likened to a straight line. The dose corresponding to 50% of the maximum effect corresponds graphically to the point located in the centre of the linear section defined as “effective dose 50”. This DE50 characterises the potency of the test compound.

Chain of androgen receptor (AR) (P10275 whole entry): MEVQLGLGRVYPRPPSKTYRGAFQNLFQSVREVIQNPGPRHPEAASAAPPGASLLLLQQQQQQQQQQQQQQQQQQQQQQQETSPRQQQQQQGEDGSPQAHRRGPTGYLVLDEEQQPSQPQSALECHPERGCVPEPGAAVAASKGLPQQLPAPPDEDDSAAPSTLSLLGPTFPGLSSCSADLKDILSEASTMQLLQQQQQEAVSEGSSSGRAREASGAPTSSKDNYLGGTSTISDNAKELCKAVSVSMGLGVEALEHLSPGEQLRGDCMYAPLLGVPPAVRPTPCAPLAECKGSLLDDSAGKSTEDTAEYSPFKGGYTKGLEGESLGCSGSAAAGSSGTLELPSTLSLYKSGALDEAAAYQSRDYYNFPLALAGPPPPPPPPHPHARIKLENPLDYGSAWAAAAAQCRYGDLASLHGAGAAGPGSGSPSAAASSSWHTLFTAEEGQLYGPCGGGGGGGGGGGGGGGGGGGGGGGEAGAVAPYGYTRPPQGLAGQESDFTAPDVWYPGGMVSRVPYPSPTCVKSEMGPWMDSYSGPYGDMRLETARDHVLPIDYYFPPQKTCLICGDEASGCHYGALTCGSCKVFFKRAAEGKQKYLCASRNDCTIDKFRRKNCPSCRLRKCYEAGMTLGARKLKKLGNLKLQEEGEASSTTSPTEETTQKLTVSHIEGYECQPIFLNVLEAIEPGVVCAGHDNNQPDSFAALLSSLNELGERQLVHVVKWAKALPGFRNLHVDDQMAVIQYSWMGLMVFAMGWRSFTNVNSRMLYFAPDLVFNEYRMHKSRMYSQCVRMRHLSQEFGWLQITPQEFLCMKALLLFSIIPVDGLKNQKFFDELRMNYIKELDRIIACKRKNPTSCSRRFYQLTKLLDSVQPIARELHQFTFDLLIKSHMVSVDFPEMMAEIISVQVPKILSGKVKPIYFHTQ

CCCCC(C)(O)C(=O)Nc1cc(Br)nc(OC)c1 (stereo not shown) [Compound 72B, 2-Hydroxy-2-methyl-hexanoic acid (2-bromo-6-methoxy-pyridin-4-yl)-amide]
Kd (androgen receptor (AR)): ≤ 100 nM
Reduction of sebaceous glands (following treatment at 1 g %/mL) [1]: 46%

CCC(O)(C(=O)Nc1cc(Br)nc(OC)c1)C(C)C (stereo not shown) [Compound 74B, N-(2-Bromo-6-methoxy-pyridin-4-yl)-2-ethyl-2-hydroxy-3-methyl-butyramide]
Kd (androgen receptor (AR)): ≤ 30 nM
Reduction of sebaceous glands (following treatment at 1 g %/mL) [1]: 61%

COc1cc(NC(=O)C(C)(O)C(C)C)cc(Br)n1 (stereo not shown) [Compound 76A, N-(2-Bromo-6-methoxy-pyridin-4-yl)-2-hydroxy-2,3-dimethyl-butyramide]
Kd (androgen receptor (AR)): ≤ 30 nM
Reduction of sebaceous glands (following treatment at 1 g %/mL) [1]: 58%

CCCC(C)(O)C(=O)Nc1cc(Br)nc(OC)c1 (stereo not shown) [Compound 78B, 2-Hydroxy-2-methyl-pentanoic acid (2-bromo-6-methoxy-pyridin-4-yl)-amide]
Kd (androgen receptor (AR)): ≤ 100 nM
Reduction of sebaceous glands (following treatment at 1 g %/mL) [1]: 50%

CCCC(O)(C(=O)Nc1cc(Br)nc(OC)c1)C(C)C (stereo not shown) [Compound 79A, 2-Hydroxy-2-isopropyl-pentanoic acid (2-bromo-6-methoxy-pyridin-4-yl)-amide]
Kd (androgen receptor (AR)): ≤ 30 nM
Reduction of sebaceous glands (following treatment at 1 g %/mL) [1]: 48%
